According to PMC12888861, “Antibacterial activity of enmetazobactam against Acinetobacter spp.: a molecular dissection of mechanism of action and resistance determinants” (Antimicrobial Agents and Chemotherapy, 2025):
Values after ≈ are worked out from the molar mass of the structure shown.

Columns and labels:
[1] = tested on: carbapenem-susceptible A. baumannii isolates (n = 54); assay: MIC, broth microdilution (EUCAST), carbapenem-susceptible A. baumannii isolates; assay type: cell-based, Acinetobacter baumannii
Text: (§1) The bacterial strains used in this study comprised 208 clinical isolates from the Spanish National Acinetobacter spp. 2020 Multicenter Collection, which was previously characterized in detail by our research group, including whole-genome sequencing, phylogenetics studies, clonal dynamics, and resistance mechanisms ([2], [29]). Additionally, a collection of A. baumannii ATCC 17978 transformants coding the blaOXA-23, blaOXA-24/40, blaOXA-51, blaOXA-58, blaOXA-143, and blaOXA-201 genes, previously constructed and described by our group ([30]), was used to determine the activity of enmetazobactam against strains carrying the main CHDLs of A. baumannii.
(§2) The antimicrobial susceptibility of the 208 Acinetobacter spp. isolates was assessed using the broth microdilution method, as described in the European Committee on Antimicrobial Susceptibility Testing (EUCAST) v.15 guidelines (http://www.eucast.org/clinical_breakpoints). […] MICs for enmetazobactam alone were assessed as well. […] Subsequently, MIC testing was also conducted with a collection of A. baumannii ATCC 17978 transformants expressing clinically relevant OXA-like carbapenemase genes.
(§3) The A. baumannii ATCC 19606 strain was used as the reference strain in all susceptibility experiments, in duplicate assays. Antibiotics were purchased from Sigma-Aldrich, except enmetazobactam and durlobactam, which were obtained from Advanz Pharma and MedChemExpress, respectively.

[2] = tested on: carbapenem-resistant A. baumannii (CRAB) isolates (n = 67); assay: MIC, broth microdilution (EUCAST), carbapenem-resistant A. baumannii isolates; assay type: cell-based, Acinetobacter baumannii; details: Acinetobacter baumannii
Text: as §1, §2, §3

[3] = Acinetobacter baumannii, carbapenem-susceptible A. baumannii isolates (n = 54), ETZ fixed 8 mg/L in combinations

## C[n+]1ccn(C[C@@]2(C)[C@H](C(=O)[O-])N3C(=O)C[C@H]3S2(=O)=O)n1 [enmetazobactam]
[1]
  MIC distribution 0.12: 0
[1]; Acinetobacter baumannii, MBC set, isolate Ab1, A. baumannii ST 164, ADC-6, OXA-91, non-CHDLs-producing
  MIC: 2 µg/mL (≈ 6.36 µM)
[1]; Acinetobacter baumannii, MBC set, isolate Ab11, A. baumannii ST 239, ADC-2, OXA-51, non-CHDLs-producing
  MIC: 2 µg/mL (≈ 6.36 µM)
[1]; Acinetobacter baumannii, MBC set, isolate Ab34, A. baumannii ST 2182, ADC-2, OXA-130, non-CHDLs-producing
  MIC: 4 µg/mL (≈ 12.7 µM)
[1]; Acinetobacter baumannii, isolate Ab1, ST 164, ADC-6, OXA-91, in combinations ETZ fixed at 8 mg/L
  MIC: 4 µg/mL
[1]; Acinetobacter baumannii, isolate Ab11, ST 239, ADC-2, OXA-51, in combinations ETZ fixed at 8 mg/L
  MIC: 4 µg/mL
[1]; Acinetobacter baumannii, isolate Ab34, ST 2182, ADC-2, OXA-130, in combinations ETZ fixed at 8 mg/L
  MIC: 4 µg/mL
[1]; Acinetobacter baumannii, isolate Ab38, ST 866, ADC-2, OXA-385, in combinations ETZ fixed at 8 mg/L
  MIC: 4 µg/mL
[1]; Acinetobacter baumannii, isolate Ab40, ST 2176, ADC-2, OXA-64, in combinations ETZ fixed at 8 mg/L
  MIC: 4 µg/mL
[1]; Acinetobacter baumannii, isolate Ab50, ST 2176, ADC-2, OXA-64, in combinations ETZ fixed at 8 mg/L
  MIC: 4 µg/mL
[1]; Acinetobacter baumannii, isolate Ab57, ST 1470, ADC-58, OXA-106, in combinations ETZ fixed at 8 mg/L
  MIC: 2 µg/mL
[1]; Acinetobacter baumannii, isolate Ab58, ST 6, ADC-2, OXA-94, in combinations ETZ fixed at 8 mg/L
  MIC: 4 µg/mL
[1]; Acinetobacter baumannii, isolate Ab61, ST 1639, ADC-7, OXA-64, in combinations ETZ fixed at 8 mg/L
  MIC: 4 µg/mL
[1]; Acinetobacter baumannii, isolate Ab62, ST 265, ADC-2, OXA-91, in combinations ETZ fixed at 8 mg/L
  MIC: 4 µg/mL
[1]; Acinetobacter baumannii, isolate Ab67, ST 1, ADC-11, OXA-69, in combinations ETZ fixed at 8 mg/L
  MIC: 4 µg/mL
[1]; Acinetobacter baumannii, isolate Ab79, ST 106, ADC-11, OXA-78, in combinations ETZ fixed at 8 mg/L
  MIC: 4 µg/mL
[1]; Acinetobacter baumannii, isolate Ab80, ST 2182, ADC-6, OXA-208, in combinations ETZ fixed at 8 mg/L
  MIC: 4 µg/mL
[1]; Acinetobacter baumannii, isolate Ab81, ST 25, ADC-79, OXA-64, in combinations ETZ fixed at 8 mg/L
  MIC: 4 µg/mL
[1]; Acinetobacter baumannii, isolate Ab93, ST 25, ADC-79, OXA-64, in combinations ETZ fixed at 8 mg/L
  MIC: 4 µg/mL
[1]; Acinetobacter baumannii, isolate Ab95, ST 582, ADC-5, OXA-317, in combinations ETZ fixed at 8 mg/L
  MIC: 2 µg/mL
[1]; Acinetobacter baumannii, isolate Ab96, ST 582, ADC-5, OXA-317, in combinations ETZ fixed at 8 mg/L
  MIC: 2 µg/mL
[1]; Acinetobacter baumannii, isolate Ab100, ST 145, ADC-58, OXA-343, in combinations ETZ fixed at 8 mg/L
  MIC: 2 µg/mL
[1]; Acinetobacter baumannii, isolate Ab110, ST 1623, ADC-3, OXA-70, in combinations ETZ fixed at 8 mg/L
  MIC: 4 µg/mL
[1]; Acinetobacter baumannii, isolate Ab112, ST 193, ADC-like, OXA-120, in combinations ETZ fixed at 8 mg/L
  MIC: 2 µg/mL
[1]; Acinetobacter baumannii, isolate Ab124, ST 2176, ADC-2, OXA-64, in combinations ETZ fixed at 8 mg/L
  MIC: 2 µg/mL
[1]; Acinetobacter baumannii, isolate Ab127, ST 2176, ADC-2, OXA-64, in combinations ETZ fixed at 8 mg/L
  MIC: 4 µg/mL
[1]; Acinetobacter baumannii, isolate Ab128, ST 2176, ADC-2, OXA-64, in combinations ETZ fixed at 8 mg/L
  MIC: 2 µg/mL
[1]; Acinetobacter baumannii, isolate Ab130, ST 32, ADC-79, OXA-100, in combinations ETZ fixed at 8 mg/L
  MIC: 2 µg/mL
[1]; Acinetobacter baumannii, isolate Ab131, ST 687, ADC-like, OXA-208, in combinations ETZ fixed at 8 mg/L
  MIC: 2 µg/mL
[1]; Acinetobacter baumannii, isolate Ab132, ST 1112, ADC-79, OXA-89, in combinations ETZ fixed at 8 mg/L
  MIC: 2 µg/mL
[1]; Acinetobacter baumannii, isolate Ab136, ST 2183, ADC-like, OXA-66, in combinations ETZ fixed at 8 mg/L
  MIC: 4 µg/mL
[1]; Acinetobacter baumannii, isolate Ab139, ST 54, ADC-like, OXA-365, in combinations ETZ fixed at 8 mg/L
  MIC: 4 µg/mL
[1]; Acinetobacter baumannii, isolate Ab142, ST 1, ADC-like, OXA-69, in combinations ETZ fixed at 8 mg/L
  MIC: 8 µg/mL
[1]; Acinetobacter baumannii, isolate Ab143, ST 1328, ADC-76, OXA-408, in combinations ETZ fixed at 8 mg/L
  MIC: 4 µg/mL
[1]; Acinetobacter baumannii, isolate Ab149, ST 1112, ADC-6, OXA-407, in combinations ETZ fixed at 8 mg/L
  MIC: 8 µg/mL
[1]; Acinetobacter baumannii, isolate Ab150, ST 2184, ADC-like, OXA-64, in combinations ETZ fixed at 8 mg/L
  MIC: 4 µg/mL
[1]; Acinetobacter baumannii, isolate Ab152, ST 132, ADC-2, OXA-120, in combinations ETZ fixed at 8 mg/L
  MIC: 4 µg/mL
[1]; Acinetobacter baumannii, isolate Ab158, ST 2034, ADC-2, OXA-217, in combinations ETZ fixed at 8 mg/L
  MIC: 2 µg/mL
[1]; Acinetobacter baumannii, isolate Ab163, ST 132, ADC-2, OXA-120, in combinations ETZ fixed at 8 mg/L
  MIC: 2 µg/mL
[1]; Acinetobacter baumannii, isolate Ab167, ST 1623, ADC-like, OXA-345, in combinations ETZ fixed at 8 mg/L
  MIC: 2 µg/mL
[1]; Acinetobacter baumannii, isolate Ab168, ST 1470, ADC-75, OXA-402, in combinations ETZ fixed at 8 mg/L
  MIC: 2 µg/mL
[1]; Acinetobacter baumannii, isolate Ab170, ST 2110, ADC-4, OXA-338, in combinations ETZ fixed at 8 mg/L
  MIC: 4 µg/mL
[1]; Acinetobacter baumannii, isolate Ab172, ST 2185, ADC-5, OXA-217, in combinations ETZ fixed at 8 mg/L
  MIC: 2 µg/mL
[1]; Acinetobacter baumannii, isolate Ab185, ST 2, ADC-26, OXA-66, in combinations ETZ fixed at 8 mg/L
  MIC: 4 µg/mL
[1]; Acinetobacter baumannii, isolate Ab187, ST 105, ADC-2, OXA-430, in combinations ETZ fixed at 8 mg/L
  MIC: 2 µg/mL
[1]; Acinetobacter baumannii, isolate Ab188, ST 203, ADC-6, OXA-217, PDC-1, in combinations ETZ fixed at 8 mg/L
  MIC: 4 µg/mL
[1]; Acinetobacter baumannii, isolate Ab189, ST 1405, ADC-3, OXA-120, in combinations ETZ fixed at 8 mg/L
  MIC: 2 µg/mL
[1]; Acinetobacter baumannii, isolate Ab190, ST 2186, ADC-6, OXA-413, in combinations ETZ fixed at 8 mg/L
  MIC: 2 µg/mL
[1]; Acinetobacter baumannii, isolate Ab193, ST 164, ADC-6, OXA-91, in combinations ETZ fixed at 8 mg/L
  MIC: 2 µg/mL
[1]; Acinetobacter baumannii, isolate Ab195, ST 1, ADC-11, OXA-69, in combinations ETZ fixed at 8 mg/L
  MIC: 2 µg/mL
[1]; Acinetobacter baumannii, isolate Ab200, ST 1336, ADC-2, OXA-51, in combinations ETZ fixed at 8 mg/L
  MIC: 2 µg/mL
[1]; Acinetobacter baumannii, isolate Ab202, ST 1, ADC-11, OXA-69, in combinations ETZ fixed at 8 mg/L
  MIC: 2 µg/mL
[1]; Acinetobacter baumannii, isolate Ab203, ST 221, ADC-6, OXA-88, in combinations ETZ fixed at 8 mg/L
  MIC: 2 µg/mL
[1]; Acinetobacter baumannii, isolate Ab206, ST 2187, ADC-58, OXA-69, in combinations ETZ fixed at 8 mg/L
  MIC: 2 µg/mL
[1]; Acinetobacter baumannii, isolate Ab209, in combinations ETZ fixed at 8 mg/L
  MIC: 1 µg/mL
[1]; Acinetobacter baumannii, isolate Ab213, in combinations ETZ fixed at 8 mg/L
  MIC: 2 µg/mL
[1]; Acinetobacter baumannii, isolate Ab218, in combinations ETZ fixed at 8 mg/L
  MIC: 2 µg/mL
[1]; Acinetobacter baumannii, isolate Ab220, in combinations ETZ fixed at 8 mg/L
  MIC: 1 µg/mL
[1]; [3]
  MIC50: 2 µg/mL
  MIC90: 4 µg/mL
[1]; cumulative share of carbapenem-susceptible A. baumannii isolates (n = 54) at MIC 0.25 mg/L, ETZ fixed 8 mg/L in combinations
  MIC distribution 0.25: 0
[1]; cumulative share of carbapenem-susceptible A. baumannii isolates (n = 54) at MIC 0.5 mg/L, ETZ fixed 8 mg/L in combinations
  MIC distribution 0.5: 0
[1]; cumulative share of carbapenem-susceptible A. baumannii isolates (n = 54) at MIC 1 mg/L, ETZ fixed 8 mg/L in combinations
  MIC distribution 1: 3.7
[1]; cumulative share of carbapenem-susceptible A. baumannii isolates (n = 54) at MIC 2 mg/L, ETZ fixed 8 mg/L in combinations
  MIC distribution 2: 51.9
[1]; cumulative share of carbapenem-susceptible A. baumannii isolates (n = 54) at MIC 4 mg/L, ETZ fixed 8 mg/L in combinations
  MIC distribution 4: 96.3
[1]; cumulative share of carbapenem-susceptible A. baumannii isolates (n = 54) at MIC 8 mg/L, ETZ fixed 8 mg/L in combinations
  MIC distribution 8: 100
[1]; cumulative share of carbapenem-susceptible A. baumannii isolates (n = 54) at MIC 16 mg/L, ETZ fixed 8 mg/L in combinations
  MIC distribution 16: 100
[1]; cumulative share of carbapenem-susceptible A. baumannii isolates (n = 54) at MIC ≤0.06 mg/L, ETZ fixed 8 mg/L in combinations
  MIC distribution ≤0.06: 0
[1]; cumulative share of carbapenem-susceptible A. baumannii isolates (n = 54) at MIC ≥32 mg/L, ETZ fixed 8 mg/L in combinations
  MIC distribution ≥32: 100
[2]; MBC set, isolate Ab4, A. baumannii ST 2, ADC-30, OXA-66, ISAba1-OXA-23
  MIC: 64 µg/mL (≈ 204 µM)
[2]; MBC set, isolate Ab6, A. baumannii ST 2, ADC-30, OXA-66, ISAba1-OXA-23, TEM-12
  MIC: 64 µg/mL (≈ 204 µM)
[2]; MBC set, isolate Ab9, A. baumannii ST 2, ADC-30, OXA-66, OXA-23, TEM-12
  MIC: 8 µg/mL (≈ 25.5 µM)
[2]; isolate Ab56, ST 1, ADC-75, OXA-69, OXA-23, ETZ fixed 8 mg/L in combinations
  MIC: 64 µg/mL
[2]; isolate Ab83, ST 25, ADC-5, OXA-64, OXA-23, DUR fixed at 4 mg/L in combinations
  MIC: 64 µg/mL
